Values after ≈ are worked out from the molar mass of the structure shown. Read-outs that look alike come from different tables or passages of the source.
Tests used:
B. cereus = assay: standard disc plate assay, 12.5 mm paper discs (zone of inhibition), B. cereus; format: cell-based, Bacillus cereus; details: for zone of inhibition at 5000 µg/mL / zone of inhibition at 10000 µg/mL: Bacillus cereus, B. cereus; for zone of inhibition at 5000 µg/mL: 5 mg/ml; for zone of inhibition at 10000 µg/mL: 10 mg/ml; for active against Bacillus cereus: conclusion in words from the above results
From the text: (§1) The novel intermediates, disclosed herein, are useful to make novel aminoglycoside antibiotics. These novel aminoglycoside antibiotics are antibacterially active, and, thus, they can be used in various environments to eradicate or control sensitive bacteria. Following are in vitro antibacterial test results for representative compounds of the subject invention. The results were obtained with a standard disc plate assay using 12.5 mm paper discs.

B. subtilis = assay: standard disc plate assay, 12.5 mm paper discs (zone of inhibition), B. subtilis; format: cell-based, Bacillus subtilis; details: for zone of inhibition at 5000 µg/mL / zone of inhibition at 10000 µg/mL: Bacillus subtilis, B. subtilis; for zone of inhibition at 5000 µg/mL: 5 mg/ml; for zone of inhibition at 10000 µg/mL: 10 mg/ml; for active against Bacillus subtilis: conclusion in words from the above results
From the text: as §1

S. aureus UC 76 = assay: standard microplate test in BHI Agar (MIC), S. aureus UC 76; format: cell-based, Staphylococcus aureus; details: for MIC: Staphylococcus aureus, UC76, 20 h, read-out: Minimum Inhibitory Concentration
Experimental: (§2) Compounds were also tested in a standard microplate test in Brain Heart Infusion (BHI) Agar, at a concentration of 1 mg/ml. Incubation is at 37° and end points are read at 20 hours. Brain Heart Infusion Agar (supplied by Difco Laboratories, Detroit, Michigan, U.S.A.) has the following composition:
(§3) Compounds (7β), (7α) and (9) were tested again along with compounds (11) and (14β) against a neamine control using the same conditions as given above.

S. aureus UC 570 = assay: standard microplate test in BHI Agar (MIC), S. aureus UC 570; format: cell-based; details: Staphylococcus aureus, first table, read-out: Minimum Inhibitory Concentration
Experimental: as §2, with “composition: […]” for “composition:”

S. aureus UC 746 = assay: standard microplate test in BHI Agar (MIC), S. aureus UC 746; format: cell-based; details: Staphylococcus aureus, UC746, 37°, 20 h, first table, read-out: Minimum Inhibitory Concentration
Experimental: as §2, with “composition: […]” for “composition:”

S. hemolyticus UC 152 = assay: standard microplate test in BHI Agar (MIC), S. hemolyticus UC 152; format: cell-based, Streptococcus hemolyticus; details: for MIC: Streptococcus pyogenes
Experimental: as §2, §3

St. faecalis UC 694 = assay: standard microplate test in BHI Agar (MIC), St. faecalis UC 694; format: cell-based; details: Enterococcus faecalis, UC694, 20 h, read-out: Minimum Inhibitory Concentration
Experimental: as §2, §3

E. coli UC 45 = assay: standard microplate test in BHI Agar (MIC), E. coli UC 45; format: cell-based; details: Escherichia coli, UC45, 20 h, E. coli UC 45, read-out: Minimum Inhibitory Concentration
Experimental: as §2, §3

P. vulgaris UC 93 = assay: standard microplate test in BHI Agar (MIC), P. vulgaris UC 93; format: cell-based; details: Proteus vulgaris, UC93, 20 h, P. vulgaris UC 93, read-out: Minimum Inhibitory Concentration
Experimental: as §2, §3

K. pneumoniae UC 58 = assay: standard microplate test in BHI Agar (MIC), K. pneumoniae UC 58; format: cell-based; details: Klebsiella pneumoniae, UC58, 20 h
Experimental: as §2, §3

S. schottmuelleri UC 126 = assay: standard microplate test in BHI Agar (MIC), S. schottmuelleri UC 126; format: cell-based; details: 20 h, read-out: Minimum Inhibitory Concentration
Experimental: as §2, §3

Ps. aeruginosa UC 95 = assay: standard microplate test in BHI Agar (MIC), Ps. aeruginosa UC 95; format: cell-based; details: Pseudomonas aeruginosa, UC95, 20 h, Ps. aeruginosa UC 95, read-out: Minimum Inhibitory Concentration
Experimental: as §2, §3

D. pneumoniae UC 41 = assay: standard microplate test in BHI Agar (MIC), D. pneumoniae UC 41; format: cell-based; details: Streptococcus pneumoniae, UC41, 20 h, D. pneumoniae UC 41, read-out: Minimum Inhibitory Concentration
Experimental: as §2, §3

P. mirabilis A-63 = assay: standard microplate test in BHI Agar (MIC), P. mirabilis A-63; format: cell-based; details: Proteus mirabilis, A63, 20 h, P. mirabilis A-63, retest table, neamine control, read-out: Minimum Inhibitory Concentration
Experimental: as §2, §3

P. morgani UC 3186 = assay: standard microplate test in BHI Agar (MIC), P. morgani UC 3186; format: cell-based; details: 20 h, P. morgani UC 3186, retest table, neamine control, read-out: Minimum Inhibitory Concentration
Experimental: as §2, §3

P. rettgeri UC 339 = assay: standard microplate test in BHI Agar (MIC), P. rettgeri UC 339; format: cell-based; details: Providencia rettgeri, UC339, 20 h, P. rettgeri UC 339, retest table, neamine control, read-out: Minimum Inhibitory Concentration
Experimental: as §2, §3

S. marcescens UC 131 = assay: standard microplate test in BHI Agar (MIC), S. marcescens UC 131; format: cell-based; details: Serratia marcescens, UC131, 20 h, S. marcescens UC 131, retest table, neamine control, read-out: Minimum Inhibitory Concentration
Experimental: as §2, §3

S. flexneri UC 143 = assay: standard microplate test in BHI Agar (MIC), S. flexneri UC 143; format: cell-based; details: Shigella flexneri, UC143, 20 h, retest table, neamine control, read-out: Minimum Inhibitory Concentration
Experimental: as §2, §3

S. typhi TG-3 = assay: standard microplate test in BHI Agar (MIC), S. typhi TG-3; format: cell-based; details: Salmonella enterica, 20 h, read-out: Minimum Inhibitory Concentration
Experimental: as §2, §3

[1] = BHI agar, 37°, 20 h, first table, *run on different day
[2] = retest table, group (7β), (14β), neamine control
[3] = BHI agar, 37°, 20 h, first table
[4] = retest table, group (9), (11), (7α), neamine control

NC[C@H]1O[C@H](O[C@H]2[C@H](O)[C@@H](O[C@@H]3O[C@H](CO)[C@@H](O)[C@H]3O)[C@H](N)C[C@@H]2N)[C@H](N)[C@@H](O)[C@@H]1O [(7β), 6-O-(β-D-Ribofuranosyl)neamine]
zone of inhibition at 5000 µg/mL (B. cereus): 25 mm | zone of inhibition at 10000 µg/mL (B. cereus): 34 mm | active against Bacillus cereus (B. cereus): active | zone of inhibition at 5000 µg/mL (B. subtilis): 35 mm | zone of inhibition at 10000 µg/mL (B. subtilis): 38 mm | active against Bacillus subtilis (B. subtilis): active | MIC (S. aureus UC 76; S. aureus 284 UC 76, BHI agar, 37°, 20 h, first table, *run on different day): 1000 µg/mL (≈ 2200 µM) | MIC (S. aureus UC 76; S. aureus UC 76, retest table, group (7β), (14β), neamine control): 500 µg/mL (≈ 1100 µM) | MIC (S. aureus UC 570; UC570, 37°, 20 h, *run on different day): 1000 µg/mL (≈ 2200 µM) | MIC (S. aureus UC 746; *run on different day): 500 µg/mL (≈ 1100 µM) | MIC (S. hemolyticus UC 152; UC152, 20 h, read-out: Minimum Inhibitory Concentration, S. hemolyticus UC 152, BHI agar, 37°, 20 h, first table, *run on different day): 62.5 µg/mL (≈ 138 µM) | MIC (S. hemolyticus UC 152; UC152, 20 h, S. hemolyticus UC 152, retest table, group (7β), (14β), neamine control, read-out: Minimum Inhibitory Concentration): 250 µg/mL (≈ 550 µM) | MIC (St. faecalis UC 694; S. faecalis UC 694, retest table, group (7β), (14β), neamine control): 1000 µg/mL (≈ 2200 µM) | MIC (St. faecalis UC 694; St. faecalis UC 694, BHI agar, 37°, 20 h, first table, *run on different day): > 1000 µg/mL | MIC (E. coli UC 45; [1]): 500 µg/mL (≈ 1100 µM) | MIC (E. coli UC 45; [2]): 1000 µg/mL (≈ 2200 µM) | MIC (P. vulgaris UC 93; [1]): 500 µg/mL (≈ 1100 µM) | MIC (P. vulgaris UC 93; [2]): 1000 µg/mL (≈ 2200 µM) | MIC (K. pneumoniae UC 58; read-out: Minimum Inhibitory Concentration, K. pneumoniae UC 58, BHI agar, 37°, 20 h, first table, *run on different day): 62.5 µg/mL (≈ 138 µM) | MIC (K. pneumoniae UC 58; K. pneumoniae UC 58, retest table, group (7β), (14β), neamine control, read-out: Minimum Inhibitory Concentration): 250 µg/mL (≈ 550 µM) | MIC (S. schottmuelleri UC 126; BHI agar, 37°, first table, *run on different day): 250 µg/mL (≈ 550 µM) | MIC (S. schottmuelleri UC 126; [2]): 500 µg/mL (≈ 1100 µM) | MIC (Ps. aeruginosa UC 95; [1]): > 1000 µg/mL | MIC (Ps. aeruginosa UC 95; [2]): 1000 µg/mL (≈ 2200 µM) | MIC (D. pneumoniae UC 41; [1]): > 1000 µg/mL | MIC (D. pneumoniae UC 41; [2]): 1000 µg/mL (≈ 2200 µM) | MIC (P. mirabilis A-63; group (7β), (14β)): 1000 µg/mL (≈ 2200 µM) | MIC (P. morgani UC 3186; group (7β), (14β)): 1000 µg/mL (≈ 2200 µM) | MIC (P. rettgeri UC 339; group (7β), (14β)): 1000 µg/mL (≈ 2200 µM) | MIC (S. marcescens UC 131; group (7β), (14β)): 1000 µg/mL (≈ 2200 µM) | MIC (S. flexneri UC 143; group (7β), (14β)): 1000 µg/mL (≈ 2200 µM) | MIC (S. typhi TG-3): 1000 µg/mL (≈ 2200 µM)

CC1(O[C@@H]2[C@@H](O)[C@H](O[C@H]3O[C@H](CN)[C@@H](O)[C@H](O)[C@H]3N)[C@@H](N)C[C@H]2N)O[C@H]2O[C@H](CO)[C@@H](O)[C@H]2O1 (stereo partly shown) [Compound (9)]
zone of inhibition at 5000 µg/mL (B. cereus): 29 mm | zone of inhibition at 10000 µg/mL (B. cereus): 34 mm | active against Bacillus cereus (B. cereus): active | zone of inhibition at 5000 µg/mL (B. subtilis): 32 mm | zone of inhibition at 10000 µg/mL (B. subtilis): 34 mm | active against Bacillus subtilis (B. subtilis): active | MIC (S. aureus UC 76; S. aureus UC 76, retest table, group (9), (11), (7α), neamine control): 125 µg/mL (≈ 252 µM) | active against Staphylococcus aureus (S. aureus UC 76; conclusion in words from the above results): active | MIC (S. aureus UC 570; UC570, 20 h, 37°): 250 µg/mL (≈ 504 µM) | MIC (S. aureus UC 746): 250 µg/mL (≈ 504 µM) | Minimum Inhibitory Concentration (S. hemolyticus UC 152; S. hemolyticus UC 152, retest table, group (9), (11), (7α), neamine control): 3.9 µg/mL | MIC (S. hemolyticus UC 152; UC152, S. hemolyticus UC 152, BHI agar, 37°, 20 h, first table, read-out: Minimum Inhibitory Concentration): 3.9 µg/mL (≈ 7.85 µM) | MIC (St. faecalis UC 694; S. faecalis UC 694, retest table, group (9), (11), (7α), neamine control): 1000 µg/mL (≈ 2010 µM) | MIC (St. faecalis UC 694; St. faecalis UC 694, BHI agar, 37°, 20 h, first table): > 1000 µg/mL | MIC (E. coli UC 45; [3]): 250 µg/mL (≈ 504 µM) | MIC (E. coli UC 45; [4]): 250 µg/mL (≈ 504 µM) | MIC (P. vulgaris UC 93; [3]): 500 µg/mL (≈ 1010 µM) | MIC (P. vulgaris UC 93; [4]): 125 µg/mL (≈ 252 µM) | MIC (K. pneumoniae UC 58; read-out: Minimum Inhibitory Concentration, K. pneumoniae UC 58, BHI agar, 37°, 20 h, first table): 62.5 µg/mL (≈ 126 µM) | MIC (K. pneumoniae UC 58; K. pneumoniae UC 58, retest table, group (9), (11), (7α), neamine control, read-out: Minimum Inhibitory Concentration): 31.2 µg/mL (≈ 62.8 µM) | MIC (S. schottmuelleri UC 126; BHI agar, 37°, first table): 250 µg/mL (≈ 504 µM) | MIC (S. schottmuelleri UC 126; [4]): 62.5 µg/mL (≈ 126 µM) | MIC (Ps. aeruginosa UC 95; [3]): > 1000 µg/mL | MIC (Ps. aeruginosa UC 95; [4]): 1000 µg/mL (≈ 2010 µM) | MIC (D. pneumoniae UC 41; [3]): > 1000 µg/mL | MIC (D. pneumoniae UC 41; [4]): 125 µg/mL (≈ 252 µM) | MIC (P. mirabilis A-63; group (9), (11), (7α)): 500 µg/mL (≈ 1010 µM) | MIC (P. morgani UC 3186; group (9), (11), (7α)): 125 µg/mL (≈ 252 µM) | MIC (P. rettgeri UC 339; group (9), (11), (7α)): 1000 µg/mL (≈ 2010 µM) | MIC (S. marcescens UC 131; group (9), (11), (7α)): 500 µg/mL (≈ 1010 µM) | MIC (S. flexneri UC 143; group (9), (11), (7α)): 500 µg/mL (≈ 1010 µM) | MIC (S. typhi TG-3): 250 µg/mL (≈ 504 µM)

Reference: patent US3984393A, “Aminoglycoside antibiotics” (The Upjohn Company, priority 1975, dated 1976)
